Results as given in patent US10881650B2, “Pharmaceutical compositions” (priority 2007, dated 2021).
“Also recorded” adds a separate entry of the source.

Key:
[1] = cited from earlier work
[2] = test system: postmenopausal women with vaginal atrophy; test: Vaginal examination: secretions, color, epithelial integrity, surface thickness (ERC-210); type: in vivo; details: 2, 4, 8 and 12 weeks
Text: At the same time intervals of 2, 4, 8 and 12 weeks, the gynecologist or physician in charge of the study at each site performed a vaginal exam to evaluate the degree of severity (none, mild, moderate or severe, analyzed using values of 0, 1, 2 and 3, respectively) for the main signs of vaginal atrophy, namely vaginal secretions, vaginal color, vaginal epithelial integrity and vaginal epithelial surface thickness. […] In fact, the beneficial effects observed by the gynecologist and or physician are almost superimposable to those self-reported by women on their most bothersome symptoms.
Vaginal examination was performed at screening and then at day 1 and at 2, 4, 8 and 12 weeks. Vaginal secretions, vaginal color, vaginal epithelial integrity and vaginal epithelial surface thickness were evaluated according to the following degrees of severity: none, mild, moderate or severe.

[3] = Bioavailability and metabolism of oral and percutaneous DHEA: serum steroids on 1st and 14th day
Text: Thirty-six healthy 60-70-year-old postmenopausal women participated in the study after IRB approval and having given their written informed consent. Body weight was within ±20% of normal body weight according to Metropolitan Life Tables.
This study was a randomized open-label trial of 12 subjects per arm. After written informed consent was obtained and women were found eligible, each subject was randomized to receive DHEA by cream, gel or orally. Daily, before breakfast, for 14 days, subjects received, at the research clinic, either 4 g of 10% DHEA gel or 4 g of 10% DHEA cream applied on a total 30 cm×30 cm area of the thighs or two 50 mg capsules of DHEA orally before breakfast.
Blood sampling was performed at 08:00-09:00 h at screening and before application of DHEA, on the first day of dosing, as well as on days 2, 4, 7, 10 and 14. On the 1st and 14th days, blood samples were obtained at 0.5 h, 1 h, 1.5 h, 2 h, 3 h, 4 h, 5 h, 6 h, 7 h, 8 h, 12 h and 24 h following DHEA administration.
DHEA, DHEA-S, androst-5-ene-3β,17β-diol (5-diol), testosterone, androstenedione (4-dione), 17β-estradiol (E2), estrone (E1), estrone sulfate (E1-S), androsterone glucuronide (ADT-G), and androstane-3*,17β-diol glucuronide (3α-diol-G) were measured by gas chromatography/mass spectrometry (DHEA, 5-diol, 4-dione, testosterone, E1 and E2) using electron impact or chemical ionization and by liquid chromatography/tandem mass spectrometry using turboionspray (DHEA-S, E1-S, ADT-G and 3α-diol-G) as described (Labrie, Bélanger et al., 2006; Labrie, Bélanger, et al, 2007b and Swanson et al. 2007).
On days 1 and 14, the area under the curve of the serum concentration of each steroid was measured between 0 h and 24 h (AUC0-24 h). The areas under the curves were calculated by a linear trapezoidal method (model-independent). The relative bioavailability of the DHEA gel, DHEA cream and DHEA capsules was based on the mean difference in the log-transformed AUC values. All calculations were performed with the SAS software (SAS Institute, Cary, N.C., USA).

[4] = Serum levels of DHEA and eleven metabolites after daily intravaginal DHEA suppositories (clinical trial ERC-213); type: in vivo, 40-75 year-old postmenopausal women; details: 0.5% DHEA intravaginal
Text: The primary objective of that study was the evaluation of the systemic bioavailability of DHEA and its metabolites following daily intravaginal application of suppositories at four different DHEA concentrations. This study was a randomized, placebo-controlled and double-blind trial of 10-subjects per arm.

endometrium [5] = test: Endometrial biopsy histology (ERC-210); type: in vivo, postmenopausal women; details: 3 months of intravaginal administration
Procedure: Endometrial biopsy was performed at screening and at month 3 at end of study. All biopsies were examined by the same pathologist at the central laboratory (Dr. Robert Dubé, Department of cytology-pathology, Enfant-Jésus Hospital, Quebec City, Canada).

[6] = one week daily intravaginal, mass spectrometry (Labrie, Cusan et al. 2008); cited from earlier work
[7] = test system: postmenopausal women with vaginal atrophy; details: cited from earlier work
endometrium [8] = details: cited from earlier work
[9] = daily oral 50 mg (Arlt et al. 2001)
[10] = 24 h after 14th daily administration, oral or percutaneous

SMILES: C[C@]12CC[C@H](O)CC1=CC[C@@H]1[C@@H]2CC[C@]2(C)C(=O)CC[C@@H]12 [DHEA, dehydroepiandrosterone]
- Serum DHEA and testosterone levels ([1]; 23 h after last administration, 25 mg oral 6 months): not changed significantly
- Effect on serum testosterone or DHT [1, 9]: no significant effect
- Increase of DHEA and ADT-G [1, 9]: 80-90%
- Androgen metabolites as % of levels found in premenopausal women ([1]; daily oral 100 mg (Labrie, Bélanger et al. 2007)): 74%
- Signs of vaginal atrophy at vaginal exam [2]: highly statistically significant improvement of all four signs of vaginal atrophy
- Change in serum E1, E2 or testosterone AUC0-24 h ([3]; 14th day compared to predosing): no significant change
- Change in serum DHEA-S ([3]; 14th day, application of DHEA on the skin): No significant change
- Change in serum E1-S [3, 10]: did not change
- Change in serum levels of E1 or E2 [3, 10]: no significant change
- Change of serum ADT-G or 3α-diol-G ([3]; day 1, up to 24 h, 4 g of 10% DHEA on the skin): no significant change
- Change in serum ADT-G ([3]; day 14, application of DHEA on the skin): No significant change
- Change in serum 3α-diol-G ([3]; day 14, percutaneous administration): No significant change
- Higher level of transformation of DHEA into ADT-G and 3α-diol-G, oral vs percutaneous ([3]; female, human, serum, po): approximately 10 fold
- Transformation of DHEA into 4-dione, oral compared to percutaneous ([3]; female, human, serum, po): 2.70-3.76 times
- Change in serum E1-S ([3]; first 24 h): did not change significantly
- Effect on serum levels of E1 or E2 ([3]; first 24 h, oral or percutaneous route): no statistically significant effect
- Serum levels of active estrogens (E1, E2, E1S) and androgens (testo, DHT) [4]: not significantly affected; also recorded: does not increase
- Effect on endometrial histology (endometrium [5]): no effect on endometrial histology

SMILES: C[C@]12CC[C@@H]3c4ccc(O)cc4CC[C@H]3[C@@H]1CC[C@@H]2O [E2, 17β-estradiol]
- Increase in serum E2 [6]: 5 fold
- Cases with persisting dyspareunia ([7]; 25 μg intravaginally, 12 months (Simunic 2003)): 12.4%
- Patients having a pH less than 5.0 ([7]; 12 weeks intravaginal 25 μg (Bachmann 2008)): 51%

SMILES: CCCCC(=O)O[C@H]1CC[C@H]2[C@@H]3CCc4cc(O)ccc4[C@H]3CC[C@]12C [estradiol valerate]
- Increase of Ki labeling (endometrium [8]; 2 mg/day, 3 months (Zang 2007)): 50%

SMILES: CCCCCCCCCCC(=O)O[C@H]1CC[C@H]2[C@@H]3CCC4=CC(=O)CC[C@]4(C)[C@H]3CC[C@]12C [testosterone undecanoate]
- Effect on the endometrium (endometrium [8]; 40 mg every second day (Zang 2007)): no effect on the endometrium

SMILES: C[C@]12CC[C@H]3[C@@H](CCC4=CC(=O)CC[C@@]43C)[C@@H]1CC[C@@H]2O [testosterone]
- Proliferation with simultaneous administration of testosterone (endometrium [8]; with estradiol valerate 2 mg/day (Zang 2007)): 28%
